From paper PMC6222820, “Synthesis of New Triarylpyrazole Derivatives Possessing Terminal Sulfonamide Moiety and Their Inhibitory Effects on PGE2 and Nitric Oxide Productions in Lipopolysaccharide-Induced RAW 264.7 Macrophages” (Molecules : A Journal of Synthetic Chemistry and Natural …, 2018)
Read-outs that look alike come from different tables or passages of the source.

What was measured:
[1] = system: LPS-induced RAW 264.7 macrophages; assay: Nitric oxide (NO) production inhibition in LPS-induced RAW 264.7 macrophages (nitrite determination); format: cell-based; details: for inhibition at 1 µM: RAW264.7, 1 µM; for inhibition at 5 µM: RAW264.7, 5 µM; for inhibition at 10 µM: RAW264.7, 10 µM
Protocol: The ability of a certain molecule to inhibit the production of inflammatory mediator(s) is one of successful approach to treatment both chronic and acute inflammation.
(§1) Cell culture and sample treatment were performed as reported in the literature. The 3-(4,5-dimethylthiazol-2-yl)-2,5-diphenyltetrazolium bromide (MTT) assay for cell viability followed the procedure previously described in the literature. Nitrite determination was carried as described in the literature, and the PGE2 assay was carried as previously described.

[2] = MTT assay for cell viability / cytotoxicity; format: cell-based; details: mouse, RAW 264.7 macrophages, means ± SD of three independent experiments
Protocol: In addition to NO inhibition, the cytotoxic activity of compounds 1a–i, 2a–i, 3a–h, and 4a–h in RAW 264.7 macrophages were measured using the 3-(4,5-dimethylthiazol-2-yl)-2,5-diphenyltetrazolium bromide (MTT) assay to check whether the effects on the production of NO was caused by nonspecific cytotoxicity.
as §1

[3] = Mus musculus, LPS-induced RAW 264.7 macrophages
[4] = Mus musculus, RAW264.7, nitric oxide production, means ± SD of three independent experiments, read-out: NO (IC50)

IC50 [1, 4]	melting point	IC50 ([1]; Mus musculus, RAW264.7, read-out: NO (IC50))	Structure (SMILES)	inhibition at 1 µM [1, 3]	inhibition at 5 µM [1, 3]	inhibition at 10 µM [1, 3]	IC50 [2]	Nitric Oxide % Inhibition ([1]; 10 µM, LPS-induced RAW 264.7 macrophages)	inhibition at 40 µM ([1]; Mus musculus, RAW264.7, read-out: Nitric Oxide % Inhibition)
9.45 ± 0.15 µM			O=S(=O)(NCCCNc1cc(-c2cn(-c3ccccc3)nc2-c2cccc(O)c2)ccn1)c1ccc(C(F)(F)F)cc1 [Compound 4f, N-(3-((4-(3-(3-Hydroxyphenyl)-1-phenyl-1H-pyrazol-4-yl)pyridin-2-yl)amino)propyl)-4-(trifluoromethyl)benzenesulfonamide]	4.87 ± 0.14%	18.9 ± 1.02%	53.8 ± 1.87%	17.7 ± 0.61 µM		
8.82 ± 0.32 µM	158 to 160 °C		Cc1ccc(S(=O)(=O)NCCCNc2cc(-c3cn(-c4ccccc4)nc3-c3cccc(O)c3)ccn2)cc1 [Compound 4e, N-(3-((4-(3-(3-Hydroxyphenyl)-1-phenyl-1H-pyrazol-4-yl)pyridin-2-yl)amino)propyl)-4-methylbenzenesulfonamide]	0.69 ± 0.01%	18.6 ± 0.98%	59.7 ± 0.7%	23 ± 0.63 µM		
9.19 ± 0.25 µM			COc1cccc(-c2nn(-c3ccccc3)cc2-c2ccnc(NCCCNS(=O)(=O)c3cccc(F)c3)c2)c1 [Compound 2h, 3-Fluoro-N-(3-((4-(3-(3-methoxyphenyl)-1-phenyl-1H-pyrazol-4-yl)pyridin-2-yl)amino)propyl)benzenesulfonamide]	4.87 ± 0.05%	24.1 ± 0.91%	41.5 ± 1.12%	246 ± 2.71 µM		
9.16 ± 0.27 µM	94 to 96 °C		COc1cccc(-c2nn(-c3ccccc3)cc2-c2ccnc(NCCCNS(=O)(=O)c3ccc(C)cc3)c2)c1 [Compound 2f, N-(3-((4-(3-(3-Methoxyphenyl)-1-phenyl-1H-pyrazol-4-yl)pyridin-2-yl)amino)propyl)-4-methylbenzenesulfonamide]	4.36 ± 0.04%	19.8 ± 0.96%	46.3 ± 3.21%	323 ± 3.35 µM		
	146 to 148 °C		O=S(=O)(NCCNc1cc(-c2cn(-c3ccccc3)nc2-c2cccc(O)c2)ccn1)c1cccc2ccccc12 [Compound 3h, N-(2-((4-(3-(3-Hydroxyphenyl)-1-phenyl-1H-pyrazol-4-yl)pyridin-2-yl)amino)ethyl)naphthalene-1-sulfonamide]						
22.2 ± 0.31 µM			O=S(=O)(NCCNc1cc(-c2cn(-c3ccccc3)nc2-c2cccc(O)c2)ccn1)c1ccc(C(F)(F)F)cc1 [Compound 3f, N-(2-((4-(3-(3-Hydroxyphenyl)-1-phenyl-1H-pyrazol-4-yl)pyridin-2-yl)amino)ethyl)-4-(trifluoromethyl)benzenesulfonamide]	6.08 ± 0.07%	15.2 ± 0.91%	36.5 ± 0.59%			
16.1 ± 0.72 µM	114 to 116 °C		Cc1ccc(S(=O)(=O)NCCNc2cc(-c3cn(-c4ccccc4)nc3-c3cccc(O)c3)ccn2)cc1 [Compound 3e, N-(2-((4-(3-(3-Hydroxyphenyl)-1-phenyl-1H-pyrazol-4-yl)pyridin-2-yl)amino)ethyl)-4-methylbenzenesulfonamide]	7.15 ± 0.04%	12.4 ± 0.72%	31.4 ± 0.33%	32.5 ± 0.75 µM		
11.3 ± 0.16 µM			O=S(=O)(NCCCNc1cc(-c2cn(-c3ccccc3)nc2-c2cccc(O)c2)ccn1)c1ccc(F)cc1 [Compound 4d, 4-Fluoro-N-(3-((4-(3-(3-hydroxyphenyl)-1-phenyl-1H-pyrazol-4-yl)pyridin-2-yl)amino)propyl)benzenesulfonamide]	9.02 ± 0.03%	20.8 ± 0.36%	48.5 ± 1.79%	12.6 ± 0.22 µM		
12.4 ± 0.4 µM	92 to 94 °C		COc1cccc(-c2nn(-c3ccccc3)cc2-c2ccnc(NCCCNS(=O)(=O)c3ccc(F)cc3)c2)c1 [Compound 2d, 4-Fluoro-N-(3-((4-(3-(3-methoxyphenyl)-1-phenyl-1H-pyrazol-4-yl)pyridin-2-yl)amino)propyl)benzenesulfonamide]	7.81 ± 0.03%	23 ± 0.89%	55 ± 4.01%	260.3 ± 2.24 µM		
12.6 ± 0.29 µM	118 to 120 °C		COc1cccc(-c2nn(-c3ccccc3)cc2-c2ccnc(NCCNS(=O)(=O)c3cccc(F)c3)c2)c1 [Compound 1h, 3-Fluoro-N-(2-((4-(3-(3-methoxyphenyl)-1-phenyl-1H-pyrazol-4-yl)pyridin-2-yl)amino)ethyl)benzenesulfonamide]	11.12 ± 0.02%	26.2 ± 0.99%	41.2 ± 2.15%	244.2 ± 2.23 µM		
10.7 ± 0.52 µM	106 to 108 °C		O=S(=O)(NCCNc1cc(-c2cn(-c3ccccc3)nc2-c2cccc(O)c2)ccn1)c1ccc(F)cc1 [Compound 3d, 4-Fluoro-N-(2-((4-(3-(3-hydroxyphenyl)-1-phenyl-1H-pyrazol-4-yl)pyridin-2-yl)amino)ethyl)benzenesulfonamide]	10.58 ± 0.09%	18.3 ± 0.26%	48.2 ± 0.74%	26.6 ± 0.47 µM		
8.34 ± 0.11 µM			O=S(=O)(NCCCNc1cc(-c2cn(-c3ccccc3)nc2-c2cccc(O)c2)ccn1)c1ccc(Br)cc1 [Compound 4b, 4-Bromo-N-(3-((4-(3-(3-hydroxyphenyl)-1-phenyl-1H-pyrazol-4-yl)pyridin-2-yl)amino)propyl)benzenesulfonamide]	8.19 ± 0.06%	22.2 ± 0.72%	63.9%	19.5 ± 0.49 µM	63.82 ± 2.14%	
13.4 ± 0.72 µM	144 to 146 °C		COc1ccc(S(=O)(=O)NCCNc2cc(-c3cn(-c4ccccc4)nc3-c3cccc(OC)c3)ccn2)cc1 [Compound 1e, 4-Methoxy-N-(2-((4-(3-(3-methoxyphenyl)-1-phenyl-1H-pyrazol-4-yl)pyridin-2-yl)amino)ethyl)benzenesulfonamide]	13.52 ± 0.11%	16.1 ± 0.09%	41.5 ± 0.99%	285 ± 4.18 µM		
	178 to 180 °C		COc1cccc(-c2nn(-c3ccccc3)cc2-c2ccnc(NCCNS(=O)(=O)c3cccc4ccccc34)c2)c1 [Compound 1i, N-(2-((4-(3-(3-Methoxyphenyl)-1-phenyl-1H-pyrazol-4-yl)pyridin-2-yl)amino)ethyl)naphthalene-1-sulfonamide]						
	134 to 136 °C		COc1cccc(-c2nn(-c3ccccc3)cc2-c2ccnc(NCCCNS(=O)(=O)c3cccc4ccccc34)c2)c1 [Compound 2i, N-(3-((4-(3-(3-Methoxyphenyl)-1-phenyl-1H-pyrazol-4-yl)pyridin-2-yl)amino)propyl)naphthalene-1-sulfonamide]						
10.5 ± 0.44 µM			COc1cccc(-c2nn(-c3ccccc3)cc2-c2ccnc(NCCCNS(=O)(=O)c3ccc(C(F)(F)F)cc3)c2)c1 [Compound 2g, N-(3-((4-(3-(3-Methoxyphenyl)-1-phenyl-1H-pyrazol-4-yl)pyridin-2-yl)amino)propyl)-4-(trifluoromethyl)benzenesulfonamide]	2.91 ± 0.02%	26.3 ± 1.01%	56 ± 0.89%	252.6 ± 1.87 µM		
		29.32 ± 0.15 µM	CC(=N)NCCCC[C@H](N)C(=O)O [L-NIL, N^6-(1-Iminoethyl)-L-lysine, reference compound]						77.9 ± 4.25%
